From PMC2193175 (The Journal of Experimental Medicine, 2000)
Read-outs that look alike come from different tables or passages of the source.

What was measured:
[1] = biological target: T1, cysteine-rich domain of the murine macrophage mannose receptor (Cys-MR) (Mus musculus, UniProt Q61830); assay: microwell inhibition of Cys-MR-Fc binding to immobilized human lutropin
T1 sequence (Q61830 20-154): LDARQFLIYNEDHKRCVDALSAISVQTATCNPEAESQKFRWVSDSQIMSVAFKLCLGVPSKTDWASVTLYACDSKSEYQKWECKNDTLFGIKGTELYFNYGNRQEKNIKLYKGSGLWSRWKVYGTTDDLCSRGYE

[2] = biological target: T1, cysteine-rich domain of the murine macrophage mannose receptor (Cys-MR); assay: as above; remark: listed apart in the source

Compound | IC50 [1] [µM] | IC50 [2] [mM]
CC(=O)N[C@H]1C(O)O[C@H](CO)[C@H](OS(=O)(=O)O)[C@@H]1O (some centres unmarked) [4-sulfated N-acetylgalactosamine] | 180 | –
CC(=O)N[C@H]1C(O)O[C@H](COS(=O)(=O)O)[C@H](O)[C@@H]1O (some centres unmarked) [6-sulfated N-acetylgalactosamine] | – | 1.3
